Measured values reported in US20080167272A1, “Thalidomide metabolites and methods of use” (Auckland Uniservices Limited, priority 2005, published 2008).

Columns and labels:
ECV304 cells [1] = test: MTT cytotoxicity assay; type: cell-based, human; details: 18 h, 2-250/g/ml, vs untreated or DMSO-treated cultures
Description: The 3-(4,5-dimethylthiazol-2-yl)-2,5-diphenyl tetrazolium bromide (MTT) assay, which measures mitochondrial metabolic activity, was used to determine cell viability (Mosmann, 1983). Cells (4×10^3/well) were cultured with various concentrations of thalidomide, CG, PG and PiG in a final volume of 100 μl M199 medium (Gibco, Grand Island, N.Y., USA) supplemented with 10% foetal bovine serum ([…] streptomycin sulphate and 100 units/ml penicillin-G (Sigma, St Louis, Calif., USA) in flat-bottomed 96-well plates at 37° C. at 5% CO2 for 18 h. At the end of the incubation period, 10 μl of MTT (Sigma, St. Louis, Mo., 5 mg/ml in PBS) was added to each well, and the cells were further incubated for 2 h. The supernatants were then removed and the formazan crystals in the cells were dissolved by the addition of 100 μl of DMSO per well, and the absorbance at 590 nm was read using a plate reader. Each concentration of drug was tested in triplicate wells, and the mean ±standard error of the mean (SEM) was calculated.

TNF = test: Modulation of TNF production in Colon 38 tumour-bearing mice (serum and tumour, ELISA); type: in vivo; details: 3 h; for effect on DMXAA-induced tumour TNF level: FIG. 3B
Description: Mice with Colon 38 tumours, approximately 5-7 mm in diameter, were divided into groups of 5. One group was untreated. Other groups were treated with DMXAA (25 mg/kg) alone; DMXAA (25 mg/kg)+thalidomide (100 mg/kg), DMXAA (25 mg/kg)+PG (100 mg/kg), DMXAA (25 mg/kg)+PiG (100 mg/kg), DMXAA (25 mg/kg)+CG (100 mg/kg), DMXAA (25 mg/kg)+thalidomide (20 mg/kg), DMXAA (25 mg/kg)+CG (20 mg/kg), and thalidomide, PG, PiG or CG only at 100 and 200 mg/kg. Three hours after treatment, mice were anaesthetized with halothane (NZ Pharmacology Ltd., Christchurch, New Zealand), and blood was collected from the ocular sinus and tumours were excised. Blood was coagulated overnight at 4° C., and then centrifuged for 30 min at 2,000×g and 4° C., and the serum was removed and stored at −80° C. until use. Tumour tissues were weighed and homogenized in 1.5 ml α-minimal essential medium (Gibco, Grand Island, N.Y., USA). The homogenates were centrifuged (2,000×g, 30 min, 4° C.) and supernatant was removed and re-centrifuged (14,000×g, 30 min, 4° C.). The final supernatants were removed and kept at −80° C. until use. TNF levels in serum and supernatants derived from tumour homogenates were assayed for TNF as described in section 4 (below).
TNF was assayed using a commercially available ELISA kit (OpEIA human or murine TNF kit, PharMingen, San Diego, Calif., USA), according to the manufacturer's instructions. Briefly, samples (100 μl/well) in duplicate together with a serial dilution of TNF (31.25-2000 pg/ml) for the standard curve, were added to flat-bottom 96-well plates pre-coated with immobilised monoclonal anti-TNF antibody and incubated at room temperature for 2 h. The wells were then washed, biotinylated polyclonal antibody to TNF was added, followed by peroxidase-labelled streptavidin, and incubated at room temperature for 1 h. The wells were washed again, and the substrate, tetramethylbenzidine and hydrogen peroxide was added and after 10 min the reaction was stopped with 2 N sulphuric acid. The absorbance at 450 nm was determined using a microtitre plate reader.

ECV304 cells [2] = test: Inhibition of tube formation of ECV304 cells in Matrigel; type: cell-based, human
Description: Each well in a 24-well plate was coated with 300 μl of Matrigel (Becton Dickinson, San Jose, Calif., USA) which was allowed to solidified at 37° C. for 1 h. […] After 15-18 h of incubation at 37° C. at 5% CO2, the culture supernatant was aspirated. The cells were fixed and stained using Diff-Quick staining kit (Dade AG, Dudingen, Switzerland) according to the manufacturer's instructions. After removal of the staining solution the stained cells in each well were photographed along with a measuring ruler placed at the bottom edge of the photographing field (Olympus Camedia C-5050 professional digital camera, Olympus Optical, Tokyo, Japan). The total length of the tubes formed in the photographs was measured and divided by the area of the field (mm/mm^2).

Colon 38 tumours = test: Colon 38 tumour growth in mice, combination with cyclophosphamide; type: in vivo; details: CG 100 mg/kg plus cyclophosphamide 220 mg/kg; FIG. 9
Description: Mice (C57B1/6 bred at the Animal Resources Unit, University of Auckland, New Zealand) were implanted with Colon 38 tumours, obtained originally from the Mason Research Institute (Auckland, New Zewaland) by transferring 1 mm^3 pieces of the tumour into a subcutaneous opening in the left flank of anaesthetized mice. The mice with tumours were used for growth delay experiments when tumours had reached approximately 3-5 mm in diameter. […] Tumours were measured 2-3 times weekly after treatment and tumour volumes were calculated as 0.52×a^2×b, where a and b are the minor and major axes of the tumour. The arithmetic means and standard errors were calculated for each point, counting cured animals as having zero tumour volume, and expressed as fractions of the pre-treatment volume. Growth delay was determined as the difference in the number of days required for the tumour to reach four times the pre-treatment volume. […]

O=C1CCC(NC(=O)c2ccccc2C(=O)O)C(=O)N1 (centres unmarked) [CG, 2-{[(2,6-Dioxo-3-piperidinyl)amino]carbonyl}benzoic acid]
toxicity (cell viability, MTT) (ECV304 cells [1]): No toxicity was observed | effect on DMXAA-induced tumour TNF level (TNF; 20 mg/kg co-administered with DMXAA 25 mg/kg): significantly increased | effect on DMXAA-induced serum TNF level (TNF; 100 mg/kg co-administered with DMXAA 25 mg/kg, FIG. 3A): decreased | effect on DMXAA-induced tumour TNF level (TNF; 100 mg/kg co-administered with DMXAA 25 mg/kg): significantly increased | inhibition of tube formation (ECV304 cells [2]; 250 μg/ml, FIGS. 6 & 7): Near complete inhibition | inhibition at 2 µg/mL (ECV304 cells [2]; Homo sapiens, ECV-304, lowest concentration tested, 2 μg/ml, FIG. 7): 38 to 41% | angiogenesis inhibition in vitro compared with thalidomide (ECV304 cells [2]; human cell system, FIGS. 6 & 7): as active as thalidomide | tumour size at day 15 after treatment, combination vs monotherapies (Colon 38 tumours): significantly smaller than those treated with each of the monotherapies
